According to PMC8287944, “5-Fluorouracil blocks quorum-sensing of biofilm-embedded methicillin-resistant Staphylococcus aureus in mice” (Nucleic Acids Research, 2021):

What was measured:
[1] = test system: AI-2 production by HEK-293AI2 cells expressing MTAN and LuxS; parameters: method as in PMID 29739943; conditions: earlier proof-of-concept study; cited from earlier work
MRSA ATCC 43300 [2] = experiment: Murine tissue cage (foreign-body) infection model, prophylaxis; format: in vivo, Staphylococcus aureus; conditions: C57BL/6 mice, prophylactic treatment
Procedure: To evaluate the prophylactic efficacy of 5-FU against MRSA infection, we used our murine model of foreign-body infection, which closely mimics human implant-associated infections. This model of foreign-body infection ([26],[27]) was established with the approval of the Kantonale Veterinaeramt Basel-Stadt, Switzerland (permit no. 1710). Experiments were conducted according to the regulations of Swiss veterinary law and performed in the animal house of the Department of Biomedicine, University Hospital Basel, Switzerland. Healthy wild-type female C57BL/6 mice at 13 weeks of age (JanvierLabs, France) kept under specific pathogen-free conditions (biosafety level 2) were anesthetized, followed by the subcutaneous implantation of sterile cylindrical Teflon tissue cages (8.5 × 1 × 30 mm; volume: 1.9 ml) with 130 regularly spaced holes (Angst + Pfister AG, Zurich, Switzerland). They were housed in a 12 hr light/dark cycle (light from 7 am to 7 pm) in a temperature-controlled room (24°C) with free access to regular mice chow and water. Mice were randomly assigned to experimental groups, which were not involved in previous procedures. The mice were randomized into groups, which were treated as follows: saline (untreated growth control; n = 7), saline with 5.2844 mg/kg DPD (n = 4), 50 mg/kg daptomycin (DAP) (Novartis, Basel, Switzerland) (n = 11), 10 mg/kg 5-FU with and without 50 mg/kg DAP (each n = 8), 40 mg/kg 5-FU with or without 50 mg/kg DAP (n = 16 and n = 13, respectively), 40 mg/kg 5-FU with 1 μM DPD (n = 6), or 40 mg/kg 5-FU with 50 mg/kg DAP and 5.2844 mg/kg DPD (n = 8). DAP was given intraperitoneally immediately before implantation, and 5-FU and DPD was given immediately after implantation directly into the lumen of the cage. Afterwards, the cages were infected with 965 CFU of MRSA 43300. At 2 days post-infection, tissue cage fluid was collected, and the planktonic bacterial load was evaluated by plating on blood agar plates. In additional, mice were sacrificed and the tissue cages were explanted under aseptic conditions. The explanted tissue cages were washed twice with phosphate-buffered saline followed by 30 s vortexing, sonication for 3 min at 130 W and another 30 s vortexing to release adherent bacteria from the biofilm. Quantification of adherent bacteria was performed by plating appropriated dilutions on blood agar plates. To determine the prevention rate, the presence of any re-growth of MRSA was examined by further incubation of the cage in tryptic soy broth (TSB) for 48 h at 37°C. MRSA re-growth represents therapy failure, and the prevention rate was defined as the percentage of cages without growth in each treatment group.
Figure 6. Prophylactic effect of 5-FU against MRSA ATCC 43300 in a murine tissue cage infection model. Read-outs were obtained two days after infection with 965 CFU/cage and treatment with saline, saline with 1 μM AI-2, 50 mg/kg daptomycin (DAP), 10 mg/kg 5-FU with or without 50 mg/kg DAP, 40 mg/kg 5-FU with or without 50 mg/kg DAP or 40 mg/kg 5-FU with 50 mg/kg DAP and 5.2844 mg/kg DPD, as indicated below the panels. (A) Effect on planktonic MRSA 43300 two days post-infection. (B) Effect on adherent MRSA after explantation and sonication. (C) Prevention rate. Values in (A) and (B) are median ± IQR and those in (C) are % ([…]; **P < 0.001; ****P < 0.0001; ns, not significant). TEXT PRINTED IN THE PICTURE: (C) DAP: prevention rate (%): 18 | (C) DAP + 5-FU (10): prevention rate (%): 75 | (C) DAP + 5-FU (40): prevention rate (%): 94 | (C) DAP + 5-FU (40) + DPD: prevention rate (%): 12.5 DOUBTS OF THE COPYIST ABOUT THIS PICTURE: Panel C, DAP, prevention rate: 18 or 16 (small print) / Panel C, DAP + 5-FU (10), prevention rate: 75 or 76 (small print) / Panel C: which treatment belongs to each bar was read from the small +/- grid under the plot, so the column alignment is not fully certain

MRSA ATCC 43300 [3] = test system: MRSA ATCC 43300; parameters: method as in PMID 21576433; conditions: implant-associated MRSA infection model; cited from earlier work

SMILES	AI-2 production in HEK cells [1]	Effect on biofilm / adherent MRSA (MRSA ATCC 43300 [2]; explanted cages 2 days post-infection)	Effect on planktonic MRSA infection (MRSA ATCC 43300 [2]; tissue cage fluid 2 days post-infection)	Clearance rate of daptomycin used alone (MRSA ATCC 43300 [3]) [%]
Nc1ncnc2c([C@@H]3N[C@H](CO)[C@@H](O)[C@H]3O)c[nH]c12 [immunicillin-A]	significantly decreased	–	–	–
CCCCCCCCCC(=O)N[C@@H](Cc1c[nH]c2ccccc12)C(=O)N[C@H](CC(N)=O)C(=O)N[C@@H](CC(=O)O)C(=O)N[C@@H]1C(=O)NCC(=O)N[C@@H](CCCN)C(=O)N[C@@H](CC(=O)O)C(=O)N[C@H](C)C(=O)N[C@@H](CC(=O)O)C(=O)NCC(=O)N[C@H](CO)C(=O)N[C@@H]([C@H](C)CC(=O)O)C(=O)N[C@@H](CC(=O)c2ccccc2N)C(=O)O[C@@H]1C [DAP, daptomycin]	–	neither 5-FU nor DAP alone was sufficient to contain the infection	failed to clear planktonic MRSA infections	< 20
